In patent US20030040510A1, “Selective estrogen receptor modulators in combination with estrogens” (Endorecherche, Inc., priority 2000, published 2003):
“Also recorded” adds a separate entry of the source. Marks after values point to notes of the source that are not given here.

Key:
[1] = system: OVX rats having established osteopenia; experiment: Treatment of OVX rats having established osteopenia, 26 weeks (Example 5B): BMD, total body fat; format: in vivo, Sprague-Dawley rats; settings: treatment started 10 weeks after OVX, 26 weeks daily
Description: (§1) Height to nine month-old female Sprague-Dawley rats (Crl:CD(SD)Br) (Charles River Laboratory, St-Constant, Canada) were used in this experiment. The animals were acclimatized to the environmental conditions (temperature: 22±3° C.; humidity: 50±20%; 12-h light-12-h dark cycles, lights on at 07:15 h) for at least 1 week prior to the ovariectomy. Animals were bilaterally ovariectomized (OVX) under isoflurane anesthesia. Twenty animals were kept intact as control. The animals were housed individually and were allowed free access to tap water and a pelleted certified rodent feed (Lab Diet 5002, Ralston Purina, St-Louis, Mo.). Experiments were conducted in an animal facility approved by the Canadian Council on Animal Care (CCAC) and the Association for Assessment and Accreditation of Laboratory Animal Care (AAALAC) in accordance with the CCAC Guide for Care and Use of Experimental Animals.
Treatments were initiated 10 weeks after the ovariectomy and were performed once daily during 26 weeks. Animals not receiving a test article were treated with the appropriate vehicle alone during the same period.
Prior to the OVX, prior to the first day treatment (10 weeks after OVX) and after 26 weeks of treatment, individual rats under Isoflurane anesthesia had their whole body skeleton, lumbar spine and right femur scanned using dual energy x-ray absorptiometry (DEXA; QDR 4500A, Hologic, Waltham, Mass.) and a Regional High Resolution Scan software. The bone mineral density (BMD) of the lumbar spine (vertebrae L2 to L4), femur and the total body composition (fat percentage) were determined.

[2] = system: uterus and vagina of ovariectomized nude mice; experiment: Uterine, vaginal and body weight in the xenograft-bearing OVX nude mice (Example 1)
[3] = system: ovariectomized female rats; experiment: Prevention of bone loss, body fat, serum cholesterol and ALP, 3-month treatment of OVX rats (Example 5A, experiment 1); format: in vivo, Sprague-Dawley rats; settings: OVX rats, 3 months
Description: as §1, with “Ten” for “Height”, “twelve week-old” for “nine month-old”, “Canada) weighing approximately 220-270 g at start of treatment” for “Canada)”, “used.” for “used in this experiment.”, “before starting” for “prior to”, “experiments.” for “ovariectomy. Animals were bilaterally ovariectomized (OVX) under isoflurane anesthesia. Twenty animals were kept intact as control.”
On day 1 of the study, the animals of the appropriate groups were bilaterally ovariectomized (OVX) under isoflurane anesthesia. […] Treatments were initiated on day 2 of the study and were performed once daily during 3 months.
(§2) After 3 months (experiment 1) or 26 weeks (experiment 2) of treatment, individual rats under Isoflurane anesthesia had their whole body skeleton and lumbar spine scanned using dual energy x-ray absorptiometry (DEXA; QDR 4500A, Hologic, Waltham, Mass.) and a Regional High Resolution Scan software. The bone mineral density (BMD) of the lumbar spine (vertebrae L2 to L4) and the total body composition (fat percentage) were determined.
(§3) After 3 months (experiment 1) or 26 weeks (experiment 2) of treatment, blood samples were collected at the jugular vein from overnight fasted animals (under Isoflurane anesthesia). Samples were processed for serum preparation and frozen at −80° C. until assay. Serum cholesterol levels and alkaline phospatase activity (ALP) were determined using the Boehringer Mannheim Diagnostic Hitachi 911 Analyzer (Boehringer Mannheim Diagnostic Laboratory Systems).

[4] = system: ZR-75-1 breast tumor xenografts; experiment: Growth of human ZR-75-1 breast tumor xenografts in OVX nude mice supplemented with estrone (DHEA, EM-800; Example 1); settings: OVX + E1; for Inhibition of E1-stimulated ZR-75-1 tumor size / Inhibition of terminal tumor weight / Average tumor weight: 9.5 months
[5] = system: bone metabolism in the rat; experiment: Biochemical parameters of bone metabolism (urine, serum) after DHEA and/or EM-800; format: in vivo; settings: DHEA 10 mg, EM-800 75 μg
Text: Data are expressed as the means±SEM.**: P<0.01 experimental versus respective control.
It is particularly important to indicate that the combination of DHEA and EM-800 exerted unexpected beneficial effects on important biochemical parameters of bone metabolism. […] Moreover, no effect of DHEA could be detected on daily urinary calcium or phosphorus excretion (Luo et al., Endocrinology 138: 4435-4444, 1997). EM-800, decreased the urinary hydroxyproline/creatinine ratio by 48% while, similarly to DHEA, no effect of EM-800 was seen on urinary calcium or phosphorus excretion. EM-800, moreover, had no effect on serum alkaline phosphatase activity, a marker of bone formation while DHEA increased the value of the parameter by about 75% (Luo et al., Endocrinology 138: 4435-4444, 1997).

[6] = system: bone metabolism in the rat; settings: cited from earlier work
[7] = system: MCF-7 cells; experiment: Proliferation of human breast cancer MCF-7 cells (DNA content); format: cell-based; settings: MCF-7, Experiment 1
Description: The MCF-7 human breast adenocarcinoma cell line was derived from the pleural effusion of a patient. MCF-7 cells were used between passages 148 and 165 and subcultured weekly
Cells in their late logarithmic growth phase were harvested with 0.1% pancreatin (Sigma) and resuspended in the appropriate medium containing 50 ng bovine insulin/ml and 5% (v/v) FBS treated twice with dextran-coated charcoal to remove endogenous steroids. Cells were plated in 24-well Falcon plastic culture plates (2 cm^2/well) at the indicated density and allowed to adhere to the surface of the plates for 72 h. Thereafter, medium was replaced with fresh medium containing the indicated concentrations of compounds diluted from 1000×stock solutions in 99% redistilled ethanol in the presence or absence of E2. Control cells received only the ethanolic vehicle (0.1% EtOH,v/v). Cells were incubated for the specified time intervals with medium changes at 2-or 3-day intervals. Cell number was determined by measurement of DNA content.
Dose-response curves as well IC50 values were calculated using a weighted iterative nonlinear least-squares regression. All results are expressed as means±SEM.

[8] = system: ovariectomized female rats; experiment: Prevention of bone loss, body fat, serum cholesterol and ALP, 26-week treatment of OVX rats (Example 5A, experiment 2); format: in vivo, Sprague-Dawley rats; settings: 26 weeks
Description: as §1, with “Ten” for “Height”, “twelve week-old” for “nine month-old”, “Canada) weighing approximately 220-270 g at start of treatment” for “Canada)”, “used.” for “used in this experiment.”, “before starting” for “prior to”, “experiments.” for “ovariectomy. Animals were bilaterally ovariectomized (OVX) under isoflurane anesthesia. Twenty animals were kept intact as control.”
On day 1 of the study, the animals of the appropriate groups were bilaterally OVX under isoflurane anesthesia. Tested compounds were administered as suspension in 0.4% methylcellulose by oral gavage. Treatments were initiated on day 2 of the study and were performed once daily during 26 weeks. In both experiments, animals not receiving a test article were treated with the appropriate vehicle alone during the same period.
as §2, §3

[9] = system: uterus and vagina of ovariectomized mice; experiment: Uterine and vaginal weight in ovariectomized mice treated or not with estrone (9 days oral); format: in vivo, BALB/c mice; settings: for Inhibition of estrone-stimulated uterine weight / Inhibition of estrone-stimulated vaginal weight: 9 days, OVX mice + E1
Description: (St-Constant, Quebec, Canada) and housed 5 per cage in a temperature (23±1° C.)—and light (12 h light/day, lights on at 7:15)—controlled environment. The mice were fed rodent chow and tap water ad libitum. […] Ten mice were kept intact as controls. […] Compounds were dissolved in ethanol (4% final concentration) and administered in 0.4% methylcellulose. Mice in the intact and OVX control groups received the vehicle alone (4% ETOH-0.4% methylcellulose) during the 9-day period. The animals were killed by exsanguination at the abdominal aorta on the 11th morning following ovariectomy.

[10] = E2 1 mg/kg, EM-652.HCl 2.5 mg/kg, DHEA 80 mg/kg
[11] = DHEA 0.3 mg (alone or with EM-800 15 μg)
[12] = DHEA 1.0 mg (alone or with EM-800 15 μg)
[13] = DHEA 3.0 mg (alone or with EM-800 15 μg)
[14] = OVX rats, Premarin 0.25 mg/kg, SERMs 2.5 mg/kg oral
[15] = OVX + ERA-923 3 μg (no estrone)
[16] = OVX + ERA-923 30 μg (no estrone)
[17] = alone, absence of estrone, both doses used

C[C@]12CC[C@H](O)CC1=CC[C@@H]1[C@@H]2CC[C@]2(C)C(=O)CC[C@@H]12 [DHEA, dehydroepiandrosterone, reference compound]
Femoral BMD [1]: completely prevented the further decrease
Lumbar spine BMD [1]: completely prevented the further decrease
Total body fat [1]: prevented the 17% increase
Effect on body weight adjusted for tumor weight ([2]; 9.5 months): No significant effect
Effect on estrone-stimulated vaginal weight ([2]; addition of DHEA to estrone): had no significant effect
Inhibition of the stimulatory effect of estrone on uterine weight ([2]; highest dose of DHEA used): 26%
Serum ALP [3]: 224±18 IU/L
Serum cholesterol [3]: 1.59 ± 0.10 mmol/L
Total fat [3]: 17.3 ± 1.5 %
Lumbar spine BMD [3, 10]: 0.2321 ± 0.0034 g/cm^2
Lumbar spine, Prevention of Bone Loss [3, 10]: 43%
Inhibition of E1-stimulated ZR-75-1 tumor size ([4]; DHEA 0.3 mg percutaneous): 50.4%
Inhibition of terminal tumor weight ([4]; DHEA 0.3 mg): 67%
Inhibition of E1-stimulated ZR-75-1 tumor size ([4]; DHEA 1.0 mg percutaneous): 76.8%
Inhibition of terminal tumor weight ([4]; DHEA 1.0 mg): 82%
Inhibition of E1-stimulated ZR-75-1 tumor size ([4]; DHEA 3.0 mg percutaneous): 80.0%
Inhibition of terminal tumor weight ([4]; DHEA 3.0 mg): 85%
Category of response: Partial [4, 11]: 0 (0) Number and (%)
Average tumor weight [4, 11]: 0.37 ± 0.12 g
Category of response: Partial [4, 12]: 0 (0) Number and (%)
Average tumor weight [4, 12]: 0.20 ± 0.06 g
Category of response: Partial [4, 13]: 0 (0) Number and (%)
Average tumor weight [4, 13]: 0.17 ± 0.06 g
Serum tALP [5]: 198.38 ± 30.76* IU/L
Urine HP/Cr [5]: 14.02 ± 1.59 μmol/mmol
Urine calcium [5]: 25.87 ± 3.54 μmol/24h/100g
Urine phosphorus [5]: 151.41 ± 14.57 μmol/24h/100g
Decrease of urinary hydroxyproline/creatinine ratio [6]: did not affect; also recorded: did not show any effect
Effect on daily urinary calcium or phosphorus excretion [6]: no effect
Increase of serum alkaline phosphatase activity [6]: about 75%

Cc1c(-c2ccc(O)cc2)n(Cc2ccc(OCCN3CCCCC3)cc2)c2ccc(O)cc12 [ERA-923]
IC50 ([7]; Homo sapiens, MCF7, read-out: Inhibition of 1nM E2 stimulation of DNA by tested compounds IC50): 3.68 nM
Maximal stimulation of DNA by tested compounds [7]: N.S.
Reversal of the fat increase induced by estrogen deficiency ([8]; OVX rats): 75%
Serum ALP ([8]; OVX rats): 85 ± 6 IU
Serum cholesterol ([8]; OVX rats): 1.15 ± 0.05 mmol/L
Total fat ([8]; OVX rats): 28.0 ± 1.8 %
Lumbar spine BMD [8, 14]: 0.2252 ± 0.0058 g/cm^2
Lumbar spine, Prevention of Bone Loss [8, 14]: 49%
OVX-induced increase on serum cholesterol levels ([8]; alone or in combination with Premarin): completely prevented
Inhibition of estrone-stimulated uterine weight ([9]; 1 μg daily oral): 12%
Inhibition of estrone-stimulated uterine weight ([9]; 3 μg daily oral): 47%
Inhibition of estrone-stimulated vaginal weight ([9]; 3 μg daily oral): 16%
Inhibition of estrone-stimulated uterine weight ([9]; 10 μg daily oral): 74%
Inhibition of estrone-stimulated vaginal weight ([9]; 10 μg daily oral): 56%
Inhibition of estrone-stimulated uterine weight ([9]; 30 μg daily oral): 94%
Inhibition of estrone-stimulated vaginal weight ([9]; 30 μg daily oral): 93%
Uterine weight ([9]; OVX + E1 + ERA-923 1 μg): 105.5 ± 6.1 mg
Vaginal weight ([9]; OVX + E1 + ERA-923 1 μg): 54.2 ± 3.0 mg
Uterine weight ([9]; OVX + E1 + ERA-923 3 μg): 69.7 ± 4.4 mg
Vaginal weight ([9]; OVX + E1 + ERA-923 3 μg): 47.2 ± 1.6 mg
Uterine weight ([9]; OVX + E1 + ERA-923 10 μg): 42.1 ± 2.7 mg
Vaginal weight ([9]; OVX + E1 + ERA-923 10 μg): 31.1 ± 2.3 mg
Uterine weight ([9]; OVX + E1 + ERA-923 30 μg): 21.7 ± 1.7 mg
Vaginal weight ([9]; OVX + E1 + ERA-923 30 μg): 16.7 ± 1.8 mg
Uterine weight [9, 15]: 18.3 ± 1.2 mg
Vaginal weight [9, 15]: 14.1 ± 1.2 mg
Uterine weight [9, 16]: 17.7 ± 1.6 mg
Vaginal weight [9, 16]: 15.3 ± 2.0 mg
Stimulatory effect on uterine weight [9, 17]: no significant stimulatory effect
Stimulatory effect on vaginal weight [9, 17]: no significant stimulatory effect
